Assays:
[1] = biological target: ERβ ligand binding domain (Homo sapiens, UniProt Q92731); assay: Competitive [3H]-estradiol binding assay, ER-β (Example 21)
Method: ER binding affinity was determined via one of the following methods:
Briefly, the incubation mixture was filtered through a high affinity protein binding filter, and washed several times to remove any unbound radioactivity. The filter plate was air dried and sealed on the bottom.
Nonspecific binding was subtracted from total binding to yield specific binding.

[2] = biological target: T1, ER-α (Rattus norvegicus (Rat), UniProt P06211); format: cell-based; conditions: for Estradiol activity at 100 nM of NRBA, ER-α: 100 nM compound compared to 1 nM estradiol
Outline: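 COS or 293 cells in phenol red-free medium with charcoal-stripped FBS, transfected with a 2×ERE firefly luciferase reporter, CMV-Renilla control and rat-cloned receptor. Compounds, estrogen or DHT added 24 h post transfection, alone or combined; firefly and Renilla luciferase read 48 h after transfection.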

[3] = biological target: T2, ER-β (Rattus norvegicus (Rat), UniProt Q62986); assay: ER-β transactivation (ERE-LUC) in COS or 293 cells; format: cell-based; conditions: for activation at 0.1 µM: HEK293, 48 h, read-out: Estradiol activity at 100 nM of NRBA, ER-β, 100 nM compound compared to 1 nM estradiol
Method: COS or 293 cells were plated in DME without phenol red+10% cs FBS at 90,000 cells per well in 24 well plates, and were transfected with 0.25 μg of the vector “ERE-LUC”, where a firefly luciferase gene was driven by two estrogen responsive elements and 0.02 μg of the control CMV-LUC, Renilla where a luciferase gene was driven by a CMV promoter. […] All the receptors were cloned from rat tissue into the PCR3.1 vector backbone. Twenty four hours post transfection, cells were treated with compounds of this invention, estrogen, DHT, and other NRBAs or combinations thereof. Cells were harvested 48 hrs after transfection, and assayed for firefly and Renilla luciferase activity.

[4] = biological target: T1, ER-α; assay: Transient transactivation assay in HEK-293 cells, ER-α and ERE-LUC; format: cell-based
Method: Human estrogen receptors (ER-α and ER-β) were cloned from prostate cDNA into a pCR3.1 plasmid vector backbone. PGC-1 was cloned into mammalian two hybrid vector pACT. ER-β H475 was mutated to alanine using site-directed mutagenesis. Sequencing was performed to determine the absence of any non specific mutations. SHP promoter (−572 to +10) (26) was cloned into pGL3 basic LUC reporter vector and human FXR was cloned into pCR3.1. HEK-293 cells were plated at 100,000 cells per well of a 24 well plate in […] (DMEM)+5% charcoal-stripped fetal bovine serum (csFBS). The cells were transfected using Lipofectamine (Invitrogen, Carlsbad, Calif.) with 0.25 μg ERE-LUC, 0.02 μg CMV-LUC (renilla luciferase) and 12.5 ng of rat ER-α or 25 ng rat ER-β. […] Luciferase assays were performed 48 hrs after transfection.
To determine if the selectivity in ER binding also translated into ER-β-selective activity, transient transactivation assays were performed in HEK-293 cells transfected with plasmids encoding ER-α or ER-β and ERE-LUC. The cells were treated with varying concentrations of the ligands and their EC50 values were determined.

[5] = biological target: T2, ER-β; assay: Transient transactivation assay in HEK-293 cells, ER-β and ERE-LUC; format: cell-based; conditions: for Function on ER-β in transactivation: HEK-293 cells
Method: Human estrogen receptors (ER-α and ER-β) were cloned from prostate cDNA into a pCR3.1 plasmid vector backbone. PGC-1 was cloned into mammalian two hybrid vector pACT. ER-β H475 was mutated to alanine using site-directed mutagenesis. Sequencing was performed to determine the absence of any non specific mutations. […] HEK-293 cells were plated at 100,000 cells per well of a 24 well plate in […] (DMEM)+5% charcoal-stripped fetal bovine serum (csFBS). […] Luciferase assays were performed 48 hrs after transfection.
The cells were treated with varying concentrations of the ligands and their EC50 values were determined.

[6] = tested on: PPAR-α; assay: PPAR-α transactivation (PPRE-LUC) in HEK-293 cells co-transfected with ER-β; format: cell-based
Method: FIG. 12 depicts the effect of ER-β ligand on PPAR-γ function through ligand binding domain (LBD). (A). HEK-293 cells were transfected with 0.25 μg PPRE-LUC, 5 ng CMV-renilla LUC and the indicated receptors (PPAR-γ and ER-β for the left panel and PPAR-α and ER-β for the right panel). The cells were treated 24 hrs after transfection with the indicated ligands and harvested 48 hrs after transfection and firefly luciferase activity was measured and normalized to renilla luciferase. (B). H475 in ER-β LBD is important for its function. H475 in ER-β LBD was mutated to alanine (A) using a site directed mutagenesis kit. Transactivation assay was performed as described in panel A in HEK-293 cells with a titration of ER-β ligands in wild type (WT) or ER-β H475A. (C). […] The cells were treated 24 hrs after transfection with the indicated ligands and harvested 48 hrs after transfection and firefly luciferase activity was measured and normalized to renilla luciferase. […] The cells were treated 24 hrs after transfection with the indicated ligands and harvested 48 hrs after transfection and firefly luciferase activity was measured and normalized to renilla luciferase. […] The cells were treated 24 hrs after transfection with the indicated ligands and harvested 48 hrs after transfection and firefly luciferase activity was measured and normalized to renilla luciferase. […]

[7] = tested on: Rat Aortic Smooth Muscle Cells (RASMC); assay: RASMC cell proliferation assay (WST-1); format: cell-based; conditions: for EC50: Rattus norvegicus, inhibitory effect sigmoid Emax model, read-out: EC50 for inhibition of RASMC proliferation; for Proliferation of RASMC: concentration between 10-30 μM
Method: EC50 values were calculated using WinNonLin 5.0.1 using the inhibitory effect sigmoid Emax model.

[8] = biological target: ER-α ligand binding domain (LBD) (Homo sapiens (Human), UniProt P03372); assay: Ligand binding assay of 14m and 12u, ER-α (Example 22A)
Sequence of ER-α ligand binding domain (LBD) (P03372 whole entry, looked up, species assumed, the tested form may be a part): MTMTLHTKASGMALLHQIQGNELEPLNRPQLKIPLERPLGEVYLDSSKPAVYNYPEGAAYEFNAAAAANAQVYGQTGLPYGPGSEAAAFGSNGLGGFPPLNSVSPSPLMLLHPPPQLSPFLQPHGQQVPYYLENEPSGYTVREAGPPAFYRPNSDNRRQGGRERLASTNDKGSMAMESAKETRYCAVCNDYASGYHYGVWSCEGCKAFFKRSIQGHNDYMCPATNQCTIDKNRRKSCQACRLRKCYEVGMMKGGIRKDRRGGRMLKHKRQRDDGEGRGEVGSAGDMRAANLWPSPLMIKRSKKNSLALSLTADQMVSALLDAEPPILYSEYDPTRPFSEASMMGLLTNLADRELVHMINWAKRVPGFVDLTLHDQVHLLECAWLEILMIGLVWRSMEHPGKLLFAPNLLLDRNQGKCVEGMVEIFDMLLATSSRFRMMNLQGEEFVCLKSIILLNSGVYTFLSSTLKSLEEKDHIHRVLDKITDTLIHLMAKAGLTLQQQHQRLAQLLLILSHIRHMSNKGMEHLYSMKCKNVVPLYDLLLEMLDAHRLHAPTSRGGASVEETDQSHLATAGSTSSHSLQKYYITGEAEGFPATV

T2 sequence (Q62986 whole entry): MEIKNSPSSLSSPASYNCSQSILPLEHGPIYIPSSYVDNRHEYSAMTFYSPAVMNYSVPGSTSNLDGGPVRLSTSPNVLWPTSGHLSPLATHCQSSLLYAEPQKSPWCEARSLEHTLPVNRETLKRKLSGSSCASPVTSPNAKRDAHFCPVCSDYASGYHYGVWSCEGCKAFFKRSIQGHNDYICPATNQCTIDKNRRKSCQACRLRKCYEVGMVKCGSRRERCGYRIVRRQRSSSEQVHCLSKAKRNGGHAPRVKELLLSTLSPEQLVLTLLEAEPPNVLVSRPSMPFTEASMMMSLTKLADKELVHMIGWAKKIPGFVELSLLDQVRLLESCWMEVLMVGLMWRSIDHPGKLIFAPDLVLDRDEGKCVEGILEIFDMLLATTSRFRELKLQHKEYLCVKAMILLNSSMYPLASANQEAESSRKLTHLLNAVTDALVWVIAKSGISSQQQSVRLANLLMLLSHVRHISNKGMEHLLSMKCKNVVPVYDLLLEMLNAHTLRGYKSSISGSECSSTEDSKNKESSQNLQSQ
Sequence of ERβ ligand binding domain (Q92731 whole entry, looked up, the tested form may be a part): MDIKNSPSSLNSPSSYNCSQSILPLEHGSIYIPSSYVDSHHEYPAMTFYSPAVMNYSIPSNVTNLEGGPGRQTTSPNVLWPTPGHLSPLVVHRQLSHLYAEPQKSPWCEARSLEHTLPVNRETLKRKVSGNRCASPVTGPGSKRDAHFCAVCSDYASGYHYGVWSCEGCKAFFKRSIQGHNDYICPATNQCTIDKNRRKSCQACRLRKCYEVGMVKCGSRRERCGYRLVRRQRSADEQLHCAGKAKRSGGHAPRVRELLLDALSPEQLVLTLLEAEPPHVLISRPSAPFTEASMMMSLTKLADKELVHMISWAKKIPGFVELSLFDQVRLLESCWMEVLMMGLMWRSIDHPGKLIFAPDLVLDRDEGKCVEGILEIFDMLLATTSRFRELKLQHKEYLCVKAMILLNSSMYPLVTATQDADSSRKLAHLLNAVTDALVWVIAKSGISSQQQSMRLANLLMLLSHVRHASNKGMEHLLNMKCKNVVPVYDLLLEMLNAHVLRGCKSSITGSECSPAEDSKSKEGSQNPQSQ

Structure (SMILES)	Ki ([1]; read-out: ER-β binding constant (Ki)) [µM]	Estradiol activity at 100 nM of NRBA, ER-α [2] [%]	activation at 0.1 µM [3] [%]	Function on ER-α in transactivation [4]	EC50 [5] [µM]	Function on ER-β in transactivation [5]	WY14643 induced PPAR-α transactivation [6]	EC50 [7] [µM]	Proliferation of RASMC [7]	Ki [8] [µM]	inhibition at 0.1 µM ([1]; read-out: Percent Inhibition of [3H]-Estradiol Binding to ER-β) [%]	Classification as ER-α agonist [2]	ER-β agonist activity [3]
N#Cc1cn(-c2ccc(O)cc2)c(=O)c2c(O)cc(O)cc12 [14m, 6,8-dihydroxy-2-(4-hydroxyphenyl)-1-oxo-1,2-dihydroisoquinoline-4-carbonitrile]	0.007	49	74.5	agonists	< 0.01	agonists	did not affect	7.89	inhibited the proliferation of RASMC in a dose-dependent manner	0.094			
O=c1c2c(O)cc(O)cc2c(Br)cn1-c1ccc(O)cc1 [12u, 4-bromo-6,8-dihydroxy-2-(4-hydroxyphenyl)isoquinolin-1(2H)-one]		62	85	agonists	< 0.01	agonists	did not affect	9.56	inhibited the proliferation of RASMC in a dose-dependent manner	0.04	96.7	ER-α agonists	ER-β agonist activity
